Assay results: PMC10782944 (Science immunology, 2023)

Key:
10LH = assay: SPR of peptide-loaded HLA-A*24:02 flowed over 10LH-biotin on a streptavidin chip; type: binding; details: peptide loaded on HLA-A*24:02
HLA-B*08:01 = HLA-B*08:01 (Homo sapiens, UniProt P01889, A93T/A95T/D138N/E176V/E187T/K202T/Q94N/R180D/S35A/V36M/Y33D/Y91F); assay: pHLA complex formation of PHOX2B peptide with HLA-B*08:01; details: HLA-B*08:01, despite NetMHCpan 4.1 prediction

Row | Sequence | dissociation rate (qualitative) (10LH) | formation of stable complexes with the HLA (HLA-B*08:01)
1 | LYLPVRVLI [ATG2A] | slow dissociation rate | –
2 | QYNPIRTTF [PHOX2B] | – | did not form stable complexes
